Data as given in ChEMBL document CHEMBL3751717, “Benzylamide antagonists of protease activated receptor 2 with anti-inflammatory activity” (Bioorg Med Chem Lett, 2016).
Calls of active or inactive are those of the source. The calls are words filed in the database; no cut-off is given here.

Legend:
[1] = biological target: Proteinase-activated receptor 2 (Homo sapiens) (UniProt P55085); assay: Agonist activity at PAR2 in human HT-29 cells assessed as induction of ca2+ release at 10 uM after 1 hr by FLIPR assay relative to 2f-LIGRLO-NH2; format: cell-based
[2] = biological target: T1, Proteinase-activated receptor 1 (Homo sapiens) (UniProt P25116); assay: Antagonist activity at PAR1 in human PC3 cells assessed as inhibition of TFLLR-induced ca2+ release at 100 uM preincubated for 15 mins measured after 1 hr by FLIPR assay; format: cell-based; settings: PC-3
T1 sequence (whole entry): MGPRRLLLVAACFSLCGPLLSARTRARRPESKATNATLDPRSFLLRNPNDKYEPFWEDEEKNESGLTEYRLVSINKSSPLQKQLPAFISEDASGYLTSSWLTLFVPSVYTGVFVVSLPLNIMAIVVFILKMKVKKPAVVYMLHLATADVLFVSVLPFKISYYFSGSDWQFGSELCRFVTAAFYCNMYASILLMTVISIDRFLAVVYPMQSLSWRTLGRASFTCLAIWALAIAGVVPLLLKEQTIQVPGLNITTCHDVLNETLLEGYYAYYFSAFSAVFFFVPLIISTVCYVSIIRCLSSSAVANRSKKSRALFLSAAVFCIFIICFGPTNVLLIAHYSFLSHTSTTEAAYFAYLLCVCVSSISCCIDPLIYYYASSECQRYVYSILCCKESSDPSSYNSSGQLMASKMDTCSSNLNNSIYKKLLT

[3] = Cmax in Wistar rat at 10 mg/kg, po; format: ADME, organism-based; design: dose 10 mg/kg, route oral; settings: in vivo
[4] = AUC (0 to 6 hrs) in Wistar rat at 10 mg/kg, po; format: ADME, organism-based; design: time < 6 hr, dose 10 mg/kg, route oral; settings: in vivo
[5] = biological target: Proteinase-activated receptor 2 (Homo sapiens) (UniProt P55085); assay: Antagonist activity at PAR2 in human HT-29 cells assessed as inhibition of 2f-LIGRLO-NH2-induced ca2+ release at 1 uM preincubated for 15 mins measured after 1 hr by FLIPR assay; format: cell-based
[6] = biological target: T2, Proteinase-activated receptor 2 (Homo sapiens, UniProt P55085); assay: Antagonist activity at PAR2 in human HT-29 cells assessed as inhibition of 2f-LIGRLO-NH2-induced ca2+ release preincubated for 15 mins measured after 1 hr by FLIPR assay; format: cell-based
T2 sequence (P55085 whole entry): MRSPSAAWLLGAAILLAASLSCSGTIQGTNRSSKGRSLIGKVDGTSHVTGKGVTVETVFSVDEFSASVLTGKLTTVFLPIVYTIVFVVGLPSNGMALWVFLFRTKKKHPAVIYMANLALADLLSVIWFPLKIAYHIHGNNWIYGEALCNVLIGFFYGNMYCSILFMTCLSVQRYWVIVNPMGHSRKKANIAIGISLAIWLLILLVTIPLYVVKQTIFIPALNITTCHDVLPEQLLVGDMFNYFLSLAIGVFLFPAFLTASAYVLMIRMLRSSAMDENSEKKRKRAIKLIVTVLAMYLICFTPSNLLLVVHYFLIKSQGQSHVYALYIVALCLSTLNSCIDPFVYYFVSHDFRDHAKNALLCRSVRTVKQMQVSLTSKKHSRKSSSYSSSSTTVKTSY

[7] = biological target: T1, Proteinase-activated receptor 1 (Homo sapiens); assay: Antagonist activity at PAR1 in human PC3 cells assessed as inhibition of alpha-thrombin-induced ca2+ release at 100 uM preincubated for 15 mins measured after 1 hr by FLIPR assay; format: cell-based; settings: PC-3
Rattus norvegicus [8] = assay: Antiinflammatory activity in Wistar rat assessed as inhibition of 2f-LIGRLO-NH2-induced paw edema at 5 mg/kg, sc dosed 120 mins before 2f-LIGRLO-NH2 stimulation; format: functional, organism-based
[9] = biological target: T2, Proteinase-activated receptor 2; assay: Antagonist activity at PAR2 in human HT-29 cells assessed as inhibition of trypsin-induced ca2+ release preincubated for 15 mins measured after 1 hr by FLIPR assay; format: cell-based
[10] = Tmax in Wistar rat at 10 mg/kg, po; format: ADME, organism-based; settings: in vivo
Rattus norvegicus [11] = assay: Antiinflammatory activity in Wistar rat assessed as inhibition of 2f-LIGRLO-NH2-induced paw edema at 10 mg/kg, po dosed 120 mins before 2f-LIGRLO-NH2 stimulation; format: functional, organism-based
HTEC [12] = assay: Antiinflammatory activity in human HTEC cells assessed as inhibition of 2f-LIGRLO-NH2-induced IL-6 production at 5 to 10 uM after 24 hrs by ELISA; format: functional, cell-based
[13] = biological target: T2, Proteinase-activated receptor 2; assay: Displacement of europium-labeled 2f-LIGRLO-NH2 from human PAR2 expressed in CHO cells after 1 to 2 hrs; format: cell-based
HTEC [14] = assay: Antiinflammatory activity in human HTEC cells assessed as inhibition of 2f-LIGRLO-NH2-induced TNFalpha production at 5 to 10 uM after 24 hrs by ELISA; format: functional, cell-based

SMILES	Activity [1] [%]	inhibition [5] [%]	other results
CC[C@H](C)[C@H](NC(=O)[C@H](CC1CCCCC1)NC(=O)c1ccno1)C(=O)NCc1nc2ccccc2[nH]1	86	–	–
CC[C@H](C)[C@H](NC(=O)[C@H](CC1CCCCC1)NC(=O)c1ccno1)C(=O)N1CCC2(C=Cc3ccccc32)CC1	16	54	inhibition [2]: inactive; Cmax [3]: 1970 nM; AUC(0-t) at 6 h [4]: 3420 ng·h/mL; IC50 ([6]; read-out: pIC50 (converted)): 1260 nM; inhibition [7]: inactive; inhibition (Rattus norvegicus [8]): Active; IC50 ([9]; read-out: IC50): 9600 nM; Tmax [10]: 2.78 h; inhibition (Rattus norvegicus [11]): Active
CC[C@H](C)[C@H](NC(=O)[C@H](CC1CCCCC1)NC(=O)c1ccno1)C(=O)NCc1ccccc1OC	20	100	inhibition [2]: inactive; inhibition (HTEC [12]): Active; Cmax [3]: 510 nM; AUC(0-t) at 6 h [4]: 444 ng·h/mL; IC50 ([6]; read-out: IC50): 500 nM; inhibition [7]: inactive; inhibition (Rattus norvegicus [8]): Active; IC50 ([9]; read-out: pIC50 (converted)): 2000 nM; IC50 [13]: 4500 nM; Tmax [10]: 2.63 h; inhibition (Rattus norvegicus [11]): inactive; inhibition (HTEC [14]): Active
CC[C@H](C)[C@H](NC(=O)[C@H](CC1CCCCC1)NC(=O)c1ccno1)C(=O)N(CC(C)C)CC(C)C	1	0	–
CC[C@H](C)[C@H](NC(=O)[C@H](CC1CCCCC1)NC(=O)c1ccno1)C(=O)NCc1cccc2c1OCO2	46	90	–
CCC(C)Oc1ccccc1CNC(=O)[C@@H](NC(=O)[C@H](CC1CCCCC1)NC(=O)c1ccno1)[C@@H](C)CC (stereo partly specified)	6	53	IC50 ([6]; read-out: IC50): 1000 nM; IC50 ([6]; read-out: pIC50 (converted)): 1260 nM
CC[C@H](C)[C@H](NC(=O)[C@H](CC1CCCCC1)NC(=O)c1ccno1)C(=O)NCc1ccccn1	83	–	–
CC[C@H](C)[C@H](NC(=O)[C@H](CC1CCCCC1)NC(=O)c1ccno1)C(=O)NCCc1ccc(OC)c(OC)c1	39	32	–
CC[C@H](C)[C@H](NC(=O)[C@H](CC1CCCCC1)NC(=O)c1ccno1)C(=O)NCc1ccc(-c2ccccc2)cc1	6	0	–
CC[C@H](C)[C@H](NC(=O)[C@H](CC1CCCCC1)NC(=O)c1ccno1)C(=O)NC1C2CC3CC(C2)CC1C3 (stereo partly specified)	26	29	–
CC[C@H](C)[C@H](NC(=O)[C@H](CC1CCCCC1)NC(=O)c1ccno1)C(=O)N(C)Cc1ccccc1OC	20	27	–
CCOc1ccccc1CNC(=O)[C@@H](NC(=O)[C@H](CC1CCCCC1)NC(=O)c1ccno1)[C@@H](C)CC	29	71	–
CC[C@H](C)[C@H](NC(=O)[C@H](CC1CCCCC1)NC(=O)c1ccno1)C(=O)NCc1ccccc1-c1ccccc1	1	0	–
CCCCOc1ccccc1CNC(=O)[C@@H](NC(=O)[C@H](CC1CCCCC1)NC(=O)c1ccno1)[C@@H](C)CC	1	8	–
CC[C@H](C)[C@H](NC(=O)[C@H](CC1CCCCC1)NC(=O)c1ccno1)C(=O)NNc1ccccc1	41	33	–
CCCOc1ccccc1CNC(=O)[C@@H](NC(=O)[C@H](CC1CCCCC1)NC(=O)c1ccno1)[C@@H](C)CC	1	34	–
CC[C@H](C)[C@H](NC(=O)[C@H](CC1CCCCC1)NC(=O)c1ccno1)C(=O)NCc1ccccc1C(F)(F)F	42	57	–
CC[C@H](C)[C@H](NC(=O)[C@H](CC1CCCCC1)NC(=O)c1ccno1)C(=O)NCc1ccccc1[N+](=O)[O-]	45	94	–
CC[C@H](C)[C@H](NC(=O)[C@H](CC1CCCCC1)NC(=O)c1ccno1)C(=O)NCc1ccc2c(c1)OCO2	33	84	–
CC[C@H](C)[C@H](NC(=O)[C@H](CC1CCCCC1)NC(=O)c1ccno1)C(=O)NCc1cccc2ccccc12	2	12	–
CC[C@H](C)[C@H](NC(=O)[C@H](CC1CCCCC1)NC(=O)c1ccno1)C(=O)N(C)Cc1ccccc1	7	7	–
CC[C@H](C)[C@H](NC(=O)[C@H](CC1CCCCC1)NC(=O)c1ccno1)C(=O)NCc1ccccc1OC(C)C	38	67	–

Continued, in another order:

Activity [1] [%]	inhibition [5] [%]	SMILES	other results
23	76	CC[C@H](C)[C@H](NC(=O)[C@H](CC1CCCCC1)NC(=O)c1ccno1)C(=O)NCc1ccccc1	–
43	85	CC[C@H](C)[C@H](NC(=O)[C@H](CC1CCCCC1)NC(=O)c1ccno1)C(=O)NCc1ccccc1Cl	–
28	82	CC[C@H](C)[C@H](NC(=O)[C@H](CC1CCCCC1)NC(=O)c1ccno1)C(=O)NCc1ccc(F)cc1	–
44	18	CC[C@H](C)[C@H](NC(=O)[C@H](CC1CCCCC1)NC(=O)c1ccno1)C(=O)NCc1cccc(OC(F)(F)F)c1	–
51	95	CC[C@H](C)[C@H](NC(=O)[C@H](CC1CCCCC1)NC(=O)c1ccno1)C(=O)NCc1ccc(OC)cc1	–
28	74	CC[C@H](C)[C@H](NC(=O)[C@H](CC1CCCCC1)NC(=O)c1ccno1)C(=O)NCc1cccc(F)c1	–
29	74	CC[C@H](C)[C@H](NC(=O)[C@H](CC1CCCCC1)NC(=O)c1ccno1)C(=O)NCc1ccccc1C	–
32	98	CC[C@H](C)[C@H](NC(=O)[C@H](CC1CCCCC1)NC(=O)c1ccno1)C(=O)NCc1cccc(OC)c1	–
87	–	CC[C@H](C)[C@H](NC(=O)[C@H](CC1CCCCC1)NC(=O)c1ccno1)C(=O)NCc1ccncc1	–
5	17	CC[C@H](C)[C@H](NC(=O)[C@H](CC1CCCCC1)NC(=O)c1ccno1)C(=O)NCc1cccc(-c2ccccc2)c1	–
40	93	CC[C@H](C)[C@H](NC(=O)[C@H](CC1CCCCC1)NC(=O)c1ccno1)C(=O)NCc1ccccc1F	–
